In patent publication US20210330611A1, “THERAPY FOR NEUROLOGICAL DISEASES/DISORDERS” (priority 2020, published 2021):
Where “and” joins values, the source holds several entries; their conditions need not be identical. Identical values can stand only once. Like-named read-outs stand apart in the source and are kept apart here.

Legend:
[1] = system: fibrin-induced microglia activation; test: Image-based assay of fibrin-induced microglia activation (HTS and dose response); format: cell-based, rat; conditions: for inhibition at 10 µM / IC50: Rattus norvegicus, Microglia; for inhibition at 10 µM: read-out: Fibrin % inhibition; for IC50: Table 7, read-out: fib_IC50
[2] = system: LPS-induced microglia activation; test: Image-based assay of LPS-induced microglia activation (HTS and dose response); format: cell-based, rat
[3] = system: fibrin- and LPS-induced microglia activation; test: cells; format: cell-based, rat
primary rat microglia [4] = test: Cell toxicity (dead cells, size <150 μm2) in coated fibrin (cFib) assay; conditions: for Fibrin % cell toxicity: primary microglia HTS;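 on Fibrin % cell toxicity: share of dead cells sized under 150 µm2 at 10 µM in fibrin-stimulated microglia HTS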
primary rat microglia [5] = conditions: rat
[6] = Rattus norvegicus, Microglia, primary microglia HTS, LPS stimulation, compounds at 10 μM; read-out: LPS % inhibition
[7] = primary microglia HTS, LPS stimulation, compounds at 10 μM; 10 µM
[8] = classification by fibrin and LPS inhibition, HTS at 10 μM
[9] = fibrin assay, dead cells (size <150 μm2), compounds at 10 μM
[10] = quadrant by fibrin and LPS inhibition, HTS at 10 μM
[11] = fibrin assay, dead cells (size <150 μm2)
[12] = quadrant by fibrin and LPS inhibition in HTS of 1907 compounds
[13] = Rattus norvegicus, Microglia, 48 h; read-out: LPS % inhibition
[14] = classification by fibrin and LPS inhibition in HTS
[15] = fibrin stimulation, cell size <150 μm2 as marker of toxicity
[16] = HTS of 1907 compounds, quadrant by fibrin and LPS inhibition
[17] = primary microglia HTS, fibrin stimulation, activation = cell size >800 μm2
[18] = Rattus norvegicus, Microglia, 48 h, primary microglia HTS, LPS stimulation, activation = cell size >800 μm2; read-out: LPS % inhibition
[19] = Rattus norvegicus, Microglia, Table 7; read-out: LPS_IC50
[20] = primary HTS, 10 μM, fibrin-stimulated primary microglia
[21] = primary HTS, 10 μM, LPS-stimulated primary microglia

Compound: CN1C[C@H](C(=O)N[C@]2(C)O[C@@]3(O)[C@@H]4CCCN4C(=O)[C@H](Cc4ccccc4)N3C2=O)C[C@@H]2c3cccc4[nH]cc(c34)C[C@H]21 [Dihydroergotamine]
- Fibrin % inhibition ([1]; primary microglia HTS, fibrin stimulation, compounds at 10 μM, 10 µM): 7% and −3%
- inhibition at 10 µM [2, 6]: 39%
- LPS % inhibition [2, 7]: 22%
- Quadrant (FIG. 5b) [3, 8]: Q4
- Fibrin % cell toxicity (primary rat microglia [4]; [9]): 1% and 0%

Compound: CC(C)NCC(O)COc1cccc2ccccc12 (stereo not drawn) [1-(Isopropylamino)-3-(1-Naphthyloxy)-2-Propanol]
- LPS % cell toxicity (primary rat microglia [5]): 0%

Compound: CN(C)C(=O)Oc1cc(OC(=O)N(C)C)cc(C(O)CNC(C)(C)C)c1 (stereo not drawn) [Bambuterol]
- inhibition at 10 µM [2, 6]: 9%
- LPS % inhibition [2, 7]: 13%
- Quadrant (FIG. 5b) [3, 10]: Q4
- Fibrin % cell toxicity (primary rat microglia [4]; [11]): 1%

Compound: CCN(CC)C(=O)/C(C#N)=C/c1cc(O)c(O)c([N+](=O)[O-])c1 [Entacapone]
- inhibition at 10 µM [2, 6]: 11%
- LPS % inhibition [2, 7]: 17%
- Quadrant (FIG. 5b) [3, 8]: Q4
- Fibrin % cell toxicity (primary rat microglia [4]; [9]): 1%

Compound: CC#C[C@]1(O)CC[C@H]2[C@@H]3CCC4=CC(=O)CCC4=C3[C@@H](c3ccc(N(C)C)cc3)C[C@@]21C [Mifepristone]
- inhibition at 10 µM ([1]; primary microglia HTS, fibrin stimulation, increased cell size (>800 μm^2) as marker of activation): 12%
- Quadrant (FIG. 5b) [3, 12]: Q4
- LPS % cell toxicity (primary rat microglia [5]): 0%

Compound: COc1cc2ncnc(Nc3ccc(F)c(Cl)c3)c2cc1OCCCN1CCOCC1 [Gefitinib]
- Quadrant (FIG. 5b) [3]: Q4
- LPS % cell toxicity (primary rat microglia [5]): 0%

Compound: C#C[C@]1(OC(C)=O)CC[C@H]2[C@@H]3CCC4=C[C@@H](OC(C)=O)CC[C@@H]4[C@H]3CC[C@@]21C [Ethynodiol Diacetate]
- Quadrant (FIG. 5b) [3, 8]: Q4
- Fibrin % cell toxicity (primary rat microglia [4]; [9]): 1%

Compound: CN(C)CCCN1c2ccccc2Sc2ccc(C(F)(F)F)cc21 [Triflupromazine]
- LPS % cell toxicity (primary rat microglia [5]): 1%

Compound: C[C@]12CC[C@@H]3c4ccc(O)cc4CC[C@H]3[C@@H]1CC[C@@H]2O [Estradiol]
- Quadrant (FIG. 5b) [3, 8]: Q4
- LPS % cell toxicity (primary rat microglia [5]): 0%

Compound: NC12CC3CC(CC(C3)C1)C2 [Amantadine]
- LPS % inhibition [2, 7]: 3% and −5%
- Quadrant (FIG. 5b) [3, 10]: Q4
- LPS % cell toxicity (primary rat microglia [5]): 0%

Compound: C[C@@H]1CN(c2c(F)c(N)c3c(=O)c(C(=O)O)cn(C4CC4)c3c2F)C[C@H](C)N1 [Sparfloxacin]
- inhibition at 10 µM [2, 13]: 11%
- Quadrant (FIG. 5b) [3, 14]: Q4
- Fibrin % cell toxicity (primary rat microglia [4]; [15]): 0% and 1%

Compound: C[C@@H]1[C@H](O)[C@@H](C)/C=C/C=C/C=C/C=C/C=C/C=C/C=C/[C@H](O[C@@H]2O[C@H](C)[C@@H](O)[C@H](N)[C@@H]2O)C[C@@H]2O[C@](O)(C[C@@H](O)C[C@@H](O)[C@H](O)CC[C@@H](O)C[C@@H](O)CC(=O)O[C@H]1C)C[C@H](O)[C@H]2C(=O)O [Amphotericin B]
- Quadrant (FIG. 5b) [3, 10]: Q4
- Fibrin % cell toxicity (primary rat microglia [4]; [11]): 1%

Compound: CC(N)C12CC3CC(CC(C3)C1)C2 (stereo not drawn) [Rimantadine]
- inhibition at 10 µM ([1]; primary microglia HTS, fibrin stimulation, cell size >800 μm2 as marker of activation): -19%
- inhibition at 10 µM ([1]; primary microglia HTS, fibrin stimulation, compounds at 10 μM): 106%
- inhibition at 10 µM [2, 13]: 2%
- inhibition at 10 µM [2, 6]: 106%
- Quadrant (FIG. 5b) [3, 14]: Q4
- Quadrant (FIG. 5b) [3, 10]: Q2
- Fibrin % cell toxicity (primary rat microglia [4]; [11]): 93%
- Fibrin % cell toxicity (primary rat microglia [4]; [15]): 0%

Compound: Cc1nc2n(c(=O)c1CCN1CCC(c3noc4cc(F)ccc34)CC1)CCCC2 [Risperidone]
- Quadrant (FIG. 5b) [3]: Q4
- LPS % cell toxicity (primary rat microglia [5]): 0%

Compound: CCCc1nc(C)c2c(=O)[nH]c(-c3cc(S(=O)(=O)N4CCN(CC)CC4)ccc3OCC)nn12 [Vardenafil]
- inhibition at 10 µM ([2]; Rattus norvegicus, Microglia, primary microglia HTS, 10 μM, LPS-stimulated, cell size >800 μm^2 as marker of activation; read-out: LPS % inhibition): 12%
- LPS % inhibition ([2]; primary microglia HTS, 10 μM, LPS-stimulated, cell size >800 μm^2 as marker of activation): 13%
- Quadrant (FIG. 5b) [3, 16]: Q4
- LPS % cell toxicity (primary rat microglia [5]): 0%

Compound: CCC(=O)c1c(O)cc(O)cc1O [Flopropione]
- inhibition at 10 µM [1, 17]: -35%
- inhibition at 10 µM [2, 18]: 10%
- Quadrant (FIG. 5b) [3, 12]: Q4
- Fibrin % cell toxicity (primary rat microglia [4]; fibrin stimulation, toxicity = cell size <150 μm2): 1%

Compound: CC(C)NCC(O)COc1ccc(CCOCC2CC2)cc1 (stereo not drawn) [Betaxolol]
- Quadrant (FIG. 5b) [3]: Q4
- LPS % cell toxicity (primary rat microglia [5]): 0%

Compound: O=C1CN2Cc3c(ccc(Cl)c3Cl)N=C2N1 [Anagrelide]
- Quadrant (FIG. 5b) [3, 10]: Q4
- Fibrin % cell toxicity (primary rat microglia [4]; [11]): 1%

Compound: Cc1ncc(C[n+]2csc(CCO)c2C)c(N)n1 [Thiamine]
- Quadrant (FIG. 5b) [3]: Q4
- LPS % cell toxicity (primary rat microglia [5]): 0%

Compound: CCN(CC)C(=O)N[C@H]1C=C2c3cccc4[nH]cc(c34)C[C@H]2N(C)C1 [Lisuride]
- Quadrant (FIG. 5b) [3]: Q4
- LPS % cell toxicity (primary rat microglia [5]): 0%

Compound: C[C@H]1O[C@@H](O[C@H]2[C@@H](O)C[C@H](O[C@H]3[C@@H](O)C[C@H](O[C@H]4CC[C@@]5(C)[C@H](CC[C@@H]6[C@@H]5CC[C@]5(C)[C@@H](C7=CC(=O)OC7)CC[C@]65O)C4)O[C@@H]3C)O[C@@H]2C)C[C@H](O)[C@@H]1O [Digitoxin]
- Quadrant (FIG. 5b) [3, 8]: Q4
- Fibrin % cell toxicity (primary rat microglia [4]; [9]): 1%

Compound: Clc1ccc2c(c1)CCc1cccnc1C2=C1CCNCC1 [Desloratadine]
- Quadrant (FIG. 5b) [3]: Q4
- LPS % cell toxicity (primary rat microglia [5]): 0%

Compound: Cn1nnc2c(C(N)=O)ncn2c1=O [Temozolomide]
- Fibrin % inhibition ([1]; primary microglia HTS, 10 μM, fibrin-stimulated, cell size >800 μm^2 as marker of activation): −31% and −26%
- Quadrant (FIG. 5b) [3, 16]: Q4
- LPS % cell toxicity (primary rat microglia [5]): 0%

Compound: O=C(O)C(O)C(O)C(=O)O.OCc1cccnc1 (stereo not drawn) [Nicotinyl Alcohol Tartrate]
- Quadrant (FIG. 5b) [3, 12]: Q4
- LPS % cell toxicity (primary rat microglia [5]): 0%

Compound: CC(C)=CCc1c2c(c3occ(-c4ccc(O)c(O)c4)c(=O)c3c1O)C=CC(C)(C)O2 [pomiferin]
- IC50 [1]: 251 nM
- IC50 [2, 19]: 123 nM
- IC50 (primary rat microglia [4]; Rattus norvegicus, Microglia, read-out: dead_IC50 (uM), Table 7, fibrin or LPS assay not specified): 3.45 µM

Compound: COc1ccc2[nH]c([S+]([O-])Cc3ncc(C)c(OC)c3C)nc2c1 (stereo not drawn) [Esomeprazole; Omeprazole]
- LPS % inhibition [2, 7]: 24% and 13%
- Quadrant (FIG. 5b) [3, 8]: Q4
- Fibrin % cell toxicity (primary rat microglia [4]; [9]): 0% and 1%

Compound: O=C1CCc2ccc(OCCCCN3CCN(c4cccc(Cl)c4Cl)CC3)cc2N1 [Aripiprazole]
- Quadrant (FIG. 5b) [3]: Q4
- LPS % cell toxicity (primary rat microglia [5]): 0%

Compound: Cn1nnnc1SCC1=C(C(=O)O)N2C(=O)[C@@H](NC(=O)[C@H](O)c3ccccc3)[C@H]2SC1 [cefamandole sodium]
- IC50 [1]: 52 nM
- IC50 [2, 19]: 2 nM
- Activity ([3]; Table 7, fib = fibrin, LPS, tox = toxicity): fib/LPS

Compound: C#C[C@]1(O)CC[C@H]2[C@@H]3CCC4=CC(=O)CC[C@@H]4[C@H]3CC[C@@]21CC [Levonorgestrel]
- inhibition at 10 µM [1, 17]: 16%
- inhibition at 10 µM [2, 18]: -13%
- Quadrant (FIG. 5b) [3, 12]: Q4

Compound: Cc1cc(/C=C/c2ccc3cc(N(C)C)ccc3[n+]2C)c(C)n1-c1ccccc1 [Pyrvinium]
- inhibition at 10 µM [1]: 113%
- inhibition at 10 µM ([2]; Rattus norvegicus, Microglia, read-out: LPS % inhibition): 115%
- Quadrant (FIG. 5b) [3]: Q2

Compound: Beta-escin
- Fibrin % inhibition [1, 20]: −11%
- LPS % inhibition [2, 21]: 11%
- Quadrant (FIG. 5b) ([3]; primary HTS, 10 μM): Q4

Compound: O=C1OCCN1/N=C/c1ccc([N+](=O)[O-])o1 [Furazolidone]
- inhibition at 10 µM [1]: 3%
- inhibition at 10 µM ([2]; Rattus norvegicus, Microglia, 48 h, read-out: LPS % inhibition): 8%
- Quadrant (FIG. 5b) [3]: Q4

Compound: CCCCCCCCCCCCCCCC(=O)O[C@@H]1[C@@H](O)[C@@H](O)[C@@H]([C@H](NC(=O)[C@@H]2C[C@@H](CCC)CN2C)[C@H](C)Cl)O[C@@H]1SC.Cl [Clindamycin Palmitate Hydrochloride]
- Fibrin % inhibition [1, 20]: −23%
- LPS % inhibition [2, 21]: 11%
- Quadrant (FIG. 5b) ([3]; primary HTS, 10 μM): Q4

Compound: Oxolamine Citrate
- Fibrin % inhibition [1]: −1%
- LPS % inhibition [2]: 10%
- Quadrant (FIG. 5b) [3]: Q4
